Experimental data as given in the NIST ThermoML archive (doi:10.1021/je101178u).
“And” between values parts separate entries of the source, which are not always exact repeats. Equal values may be shown once.

Conditions: 307.15 K, Fluid (supercritical or subcritical phases); for mass density: Buoyancy - hydrostatic balance with magnetic suspension - one sinker; for viscosity: vibrating wire

CC [ethane]
Conditions	mass density	viscosity
2134.4 kPa	30.049 kg/m3	0.01007 mPa·s
2134.5 kPa	30.051 kg/m3	0.01006 mPa·s
2653.6 kPa	39.629 kg/m3	0.01038 mPa·s
2653.7 kPa	39.631 kg/m3	0.01038 mPa·s
2674.2 kPa	40.039 kg/m3 and 40.038 kg/m3	0.01034 mPa·s
2674.3 kPa	40.04 kg/m3	0.01034 mPa·s
3138.1 kPa	50.006 kg/m3	0.01066 mPa·s
3138.2 kPa	50.008 kg/m3	0.01066 mPa·s
3138.4 kPa	50.012 kg/m3	0.01066 mPa·s
3539.6 kPa	60.147 kg/m3	0.01103 mPa·s
3539.8 kPa	60.154 kg/m3	0.01103 mPa·s
3815.6 kPa	68.316 kg/m3	0.01142 mPa·s
3821.7 kPa	68.511 kg/m3	0.01143 mPa·s
3889 kPa	70.711 kg/m3	0.01145 mPa·s
3892.4 kPa	70.823 kg/m3	0.01146 mPa·s
4150.5 kPa	80.267 kg/m3	0.01188 mPa·s
4151.6 kPa	80.309 kg/m3	0.01189 mPa·s
4152 kPa	80.328 kg/m3	0.01189 mPa·s
4152.4 kPa	80.342 kg/m3	0.01189 mPa·s
4328.6 kPa	88.031 kg/m3	0.01226 mPa·s
4329.5 kPa	88.072 kg/m3	0.01226 mPa·s
4330.1 kPa	88.099 kg/m3	0.01227 mPa·s
4330.4 kPa	88.116 kg/m3	0.01226 mPa·s
4331.5 kPa	88.167 kg/m3	0.01226 mPa·s
4514.6 kPa	97.86 kg/m3	0.01277 mPa·s
4516.2 kPa	97.954 kg/m3	0.01278 mPa·s
4517.4 kPa	98.024 kg/m3	0.01279 mPa·s
4518.3 kPa	98.079 kg/m3	0.01279 mPa·s
4519.2 kPa	98.129 kg/m3	0.01279 mPa·s
4557.7 kPa	100.499 kg/m3	0.01302 mPa·s
4558.1 kPa	100.521 kg/m3	0.01302 mPa·s
4736.3 kPa	113.82 kg/m3	0.01371 mPa·s
4736.7 kPa	113.852 kg/m3	0.01371 mPa·s
4939.2 kPa	140.104 kg/m3	0.01552 mPa·s
4939.3 kPa	140.112 kg/m3	0.01552 mPa·s
5008.9 kPa	160.457 kg/m3 and 160.473 kg/m3	0.01729 mPa·s
5019.4 kPa	165.641 kg/m3 and 165.625 kg/m3	0.01766 mPa·s
5019.5 kPa	165.654 kg/m3	0.01767 mPa·s
5042.9 kPa	182.964 kg/m3	0.01932 mPa·s
5043 kPa	183.065 kg/m3 and 183.021 kg/m3	0.01933 mPa·s and 0.01932 mPa·s
5050.1 kPa	191.037 kg/m3	0.02022 mPa·s
5050.2 kPa	191.169 kg/m3	0.02023 mPa·s
5051 kPa	192.154 kg/m3 and 192.131 kg/m3	0.02026 mPa·s
5051.1 kPa	192.228 kg/m3 and 192.185 kg/m3	0.02028 mPa·s
5058.7 kPa	202.521 kg/m3 and 202.456 kg/m3	0.02133 mPa·s and 0.02132 mPa·s
5058.8 kPa	202.654 kg/m3 and 202.599 kg/m3 and 202.583 kg/m3	0.02137 mPa·s and 0.02136 mPa·s and 0.02133 mPa·s
5060.1 kPa	204.501 kg/m3	0.02168 mPa·s
5060.2 kPa	204.534 kg/m3 and 204.598 kg/m3	0.02168 mPa·s
5060.3 kPa	204.743 kg/m3 and 204.709 kg/m3	0.02159 mPa·s and 0.02158 mPa·s
5060.4 kPa	204.805 kg/m3	0.02159 mPa·s
5062 kPa	207.173 kg/m3	0.02199 mPa·s
5062.1 kPa	207.31 kg/m3	0.02199 mPa·s
5062.2 kPa	207.441 kg/m3	0.022 mPa·s
5064.1 kPa	209.963 kg/m3 and 209.982 kg/m3 and 209.961 kg/m3	0.02215 mPa·s and 0.02216 mPa·s
5064.2 kPa	210.139 kg/m3 and 210.11 kg/m3	0.02219 mPa·s
5065.4 kPa	211.657 kg/m3 and 211.736 kg/m3	0.02255 mPa·s
5065.5 kPa	211.805 kg/m3	0.02255 mPa·s
5105 kPa	242.924 kg/m3 and 242.96 kg/m3	0.02579 mPa·s
5105.1 kPa	243 kg/m3	0.02579 mPa·s
5105.2 kPa	243.012 kg/m3	0.0258 mPa·s
5160.6 kPa	259.321 kg/m3	0.02781 mPa·s
5160.9 kPa	259.389 kg/m3	0.02781 mPa·s
5161 kPa	259.401 kg/m3 and 259.396 kg/m3	0.02781 mPa·s and 0.0278 mPa·s
5187.1 kPa	264.206 kg/m3	0.02852 mPa·s
5187.4 kPa	264.252 kg/m3	0.02852 mPa·s
5187.6 kPa	264.291 kg/m3	0.02852 mPa·s
5348.1 kPa	282.102 kg/m3	–
